Assay results as given in US20190106460A1, “BINDING INHIBITORS OF THE BETA. TRANSDUCIN REPEAT-CONTAINING PROTEIN” (priority 2011, published 2019).
Read-outs that look alike come from different tables or passages of the source. Starred links: 1 amine or outer side, 2 acyl side, 3 side chain; linkers in the order of their positions; H or OH if unused. Non-standard residues stand in square brackets, D forms with d. Residues, ends and D or L forms follow the SMILES beside them. *: point of attachment. Phe(4-NO2) = N[C@@H](Cc1ccc([N+](=O)[O-])cc1)C(=O)O; Benzenesulfonyl(4-OMe) = COc1ccc(S(=O)(=O)*)cc1; Phe(3-F) = N[C@@H](Cc1cccc(F)c1)C(=O)O; Maleoyl = O=C(/C=C\C(=O)[*:2])[*:1]; 2Naphthoyl = O=C(c1ccc2ccccc2c1)*; Brosyl = O=S(=O)(c1ccc(Br)cc1)*; Suc = O=C(CCC(=O)[*:2])[*:1]; Ahx = NCCCCCC(=O)O

Key:
PDCD4 in MCF7 cells = assay: In-cell western assay for PDCD4 accumulation; format: cell-based; conditions: general statement, different delivery vehicles
Experimental: In-Cell Western Assay for PDCD4 Accumulation.
To measure this an in-cell western assay was used and the peptidomimetics were delivered to the cells by nucleofection.
MCF7 cells were grown in 10 cm dishes in 10 ml DMEM+10% FBS and 1% Pen/Strep at 37° C./5% CO2. On the day of nucleofection, the dish was washed with 90% confluent MCF7 cells with 5 ml PBS, then 3 ml of Trypsin/EDTA was added and incubated at 37° C./5% CO2 for approximately 5 mins until the cells detached from the plastic. 7 ml of normal growth media was added and the number of cells present was counted using a haemocytometer.
The cells were centrifuged cells at 90 g for 10 mins at RT and the supernatant was removed. 100 μl of Nucleofection Buffer V+ Supplement was added (Lonza Biologics Cat no VCA-1003) per 8×10^5 cells, and the cells were added to peptidomimetics dissolved in <3% DMSO.
The cell/peptidomimetic mix was added to cuvettes supplied for the nucleofector and the sample was nucleofected using the recommended MCF7 programme for high cell viability (i.e. E-014). 500 μl of TPA (12-O-tetradecanoylphorbol-13-acetate)-supplemented growth media (i.e. DMEM/10% FBS/1% Pen-Strep/10 nM TPA) was added to the cuvette and 100 μl of this solution was transferred to a well of a 96 well plate and incubated at 37° C./5% CO2 for 8 hours.
The celled were fixed by removing the growth media, adding 3.7% Formaldehyde in PBS and incubating at RT for 20 mins. The plate was washed three times in PBS. And the cells were permeabilised by washing 5× for 5 mins each in PBS+0.1% Triton X-100.
The cells were blocked by adding 3% BSA in PBS-Tween to the cells and incubating at RT for 1.5 hours. An anti-PDCD4 antibody (Abcam cat no: ab80590) was added at a concentration of 1:1000 in 3% BSA in PBS-T (50 ul/well) and incubated at RT for 2.5 hours. The cells were washed 5× for 5 mins each with PBS-T before the secondary antibody (LiCor Biosciences Donkey Anti-Rabbit IRDye 800CW cat no 926-32213) was added at a concentration of 1:1000, along with the DNA stain DRAQ5 at a concentration of 1:10000, in 3% BSA in PBS-T (50 ul/well) and incubated at RT for 1 hour, protected from light.
The cells were washed cells 5× for 5 mins each with PBS-T and all the liquid was removed from the wells before the plate was read on the LiCor Biosciences Odyssey at 700 nm and 800 nm. The reading was normalised in the 800 nm channel to that in the 700 nm channel. The data are shown in FIG. 12, where DMSO was used as a negative control and 20 μM MG132 was used as a positive control. The data is presented as percentage activity with DMSO=0% and […]=100% activity. Error bars represent standard deviation from 3 replicates.
The compounds shown in FIGS. 14A-14B were synthesised to improve cell permeability. […] FIG. 16 compares the round II compounds (shown in FIGS. 14A-14B) with UBP036 in this assay. […] Inhibition of βTrCP, which is responsible for the degradation of both PDCD4 and β-catenin, causes a concomitant stabilisation and accumulation of levels of these proteins which can be measured by in cell western assay.

βTrCP/Skp1 = βTrCP/Skp1 (Homo sapiens, UniProt Q9Y297); assay: Surface plasmon resonance (SPR), Biacore T200; format: binding; conditions: apparent KD averaged over both surfaces
Chain of βTrCP/Skp1 (P63208 whole entry partner, one chain of several): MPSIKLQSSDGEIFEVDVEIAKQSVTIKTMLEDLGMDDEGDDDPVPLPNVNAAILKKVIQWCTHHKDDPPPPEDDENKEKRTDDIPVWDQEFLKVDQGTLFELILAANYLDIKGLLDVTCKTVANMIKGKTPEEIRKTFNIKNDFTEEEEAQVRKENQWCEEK
Experimental: Surface Plasmon Resonance (SPR)
Experiments were carried out using the Biacore T200 SPR detection system. This system exploits the phenomenon of surface plasmon resonance (SPR) to monitor interactions between molecules. The system involves the attachment of one interacting partner to a surface (an appropriate sensor chip) while the other interacting partner is passed over it in solution. The binding of molecules to the surface generates an SPR response (measured in response units (RU)) that is proportional to the mass and amount of the biomolecule (in this case βTrCP/Skp1) bound to the chip. The relative responses obtained are dependent on the concentration of the molecule binding. At RUmaximum, the attached protein's binding sites are saturated. Binding events can be followed in real time and a range of interaction characteristics can be determined including kinetics, specificity of interactions and the concentration of specific molecules in a sample.
As βTrCP was His tagged, an NTA sensor chip was used. This sensor chip has a dextran surface matrix with immobilized nitrilotriacetic acid (NTA) which provides a means of capturing polyHis-tagged proteins through Nickel chelation. It was hoped that addition of Ni^+ would orient the protein in a specific (and hopefully active) manner as it is covalently immobilised via amine coupling. Addition of EDC:NHS (N-ethyl-N′-(3-[…])-carbodiimide:N-hydroxysuccinimide) converts carboxyl groups on the dextran sensor chip surface to succinamide esters which readily form covalent bonds with primary amines. Each chip contains four flow cells (each a separate surface) which means that compounds/peptides can be passed over different forms of βTrCP and a reference surface simultaneously. If binding to βTrCP is occurring, responses should be the same (accounting for differences in density of surface etc) on each surface.
Two different βTrCP protein complexes were immobilised on to an NTA biacore sensor chip. One included the GSTSkp1 fusion (HisβTrCP/GSTSkp1) while the other was immobilised after GST Removal by Thrombin (HisβTrCP/Skp1). To ensure that the GST moiety is completely removed from Skp1, βTrCP/GSTSkp1 was incubated with thrombin ((10units/mg protein) for at least 16 hours at room temperature in 10mMHEPES 150mMNaCl pH7.4+2 mM CaCl2. Thrombin and GST were removed from βTrCP/Skp1 by buffer exchange through a 50 KDa MWCO vivaspin concentrator.
Protein Immobilisation Procedure for NTA Chip
Ni+ (500 μM NiCl) loaded on to surface at a flow rate of 5 μl/min for 60s. EDC/NHS (activates dextran carboxylates) loaded at a flow rate of 5 μl/min for 240s. Protein ([protein]=100 nM to 1 μM) loaded at a flow rate of 10 μl/min for 180s. Strip solution (350 μM EDTA/1M NaCl) added at flow rate of 10 μl/min for 30s (to chelate excess Ni+ and remove non-covalently bound protein e.g. protein oligomers). Quench solution (ethanolamine) at flow rate of 5 μl/min for 240s (to deactivate surface molecules on the chip that have not crosslinked protein). The immobilisation buffer used was 10 mM HEPES pH 7.4, 150 mM NaCl,
GST Capture Procedure (for Immobilisation Via GSTSkp1)
EDC:NHS was injected at 5 μl/min for 4 min to activate surface for amine coupling (this converts carboxyl groups on the surface of the chip to succinamide esters that react with primary amines)
Anti-GST (60 μg/ml). was loaded at 10 μl/min for 4 min resulting in an increase in response units of 6730 (Biacore manual states it should result in ˜7000)
Ethanolamine was injected at 5 μl/min for 5 min to deactivate remaining unreacted esters at surface (quenching).
Injection of a low concentration of purified GST (from kit) was injected for 3 mins at 5 μl/min before running a regeneration cycle with glycine pH2.0 that disrupts the antibody-GST interaction. […]

βTrCP [1] = target: T1, βTrCP (Homo sapiens, UniProt Q9Y297); assay: Biotin pull down assay with biotinylated IκB peptide; format: binding; conditions: for Biotin Pulldown Assay 10 μM: 10 μM compound; for Biotin Pulldown Assay 100 μM: 100 μM compound
T1 sequence (Q9Y297 1-605): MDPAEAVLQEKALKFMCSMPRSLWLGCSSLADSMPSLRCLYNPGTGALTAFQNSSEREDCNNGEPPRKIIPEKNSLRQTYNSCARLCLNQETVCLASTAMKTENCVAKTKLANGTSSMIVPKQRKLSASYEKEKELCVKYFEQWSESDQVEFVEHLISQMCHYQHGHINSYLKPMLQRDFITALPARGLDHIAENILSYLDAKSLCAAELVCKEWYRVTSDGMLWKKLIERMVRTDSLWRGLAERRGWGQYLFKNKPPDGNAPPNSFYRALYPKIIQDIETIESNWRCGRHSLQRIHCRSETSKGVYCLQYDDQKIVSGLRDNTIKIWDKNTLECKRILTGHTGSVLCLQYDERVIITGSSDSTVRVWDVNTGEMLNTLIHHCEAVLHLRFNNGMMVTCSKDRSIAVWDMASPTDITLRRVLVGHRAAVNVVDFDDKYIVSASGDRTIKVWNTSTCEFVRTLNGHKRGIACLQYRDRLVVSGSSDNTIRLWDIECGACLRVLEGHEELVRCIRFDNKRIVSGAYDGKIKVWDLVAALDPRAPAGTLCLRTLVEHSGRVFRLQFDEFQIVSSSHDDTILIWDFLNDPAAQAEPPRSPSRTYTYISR

β-TrCP1/Skp1 = β-TrCP1/Skp1 (Homo sapiens, UniProt Q9Y297); assay: βTrCP ubiquitination assay (Ub assay); format: biochemical; conditions: for Ub Assay 10 μM: 10 μM compound; for Ub Assay 100 μM: 100 μM compound
Chain of β-TrCP1/Skp1 (P63208 2-163 partner limits assumed, one chain of several): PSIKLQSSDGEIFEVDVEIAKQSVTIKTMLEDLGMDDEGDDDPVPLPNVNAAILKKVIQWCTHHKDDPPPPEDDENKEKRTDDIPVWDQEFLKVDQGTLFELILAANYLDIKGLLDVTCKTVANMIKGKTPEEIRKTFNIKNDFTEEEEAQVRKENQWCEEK
In short: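 Compounds tested in duplicate at 10 and 100 μM in βTrCP(IκBα) and βTrCP(β-catenin) cascades with UBE1 E1, UbcH3 E2 and biotinylated ubiquitin; substrate phosphorylation done without compound, ubiquitination steps with compound. Product captured on anti-c-Myc plates and detected with SA-Ru TAG by MSD electrochemiluminescence.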

Skp2 = Skp2 (Homo sapiens, UniProt Q13309); assay: Selectivity assay vs other E3s: Skp2; format: biochemical; conditions: for inhibition at 100 µM: value in brackets, read-out: % Inhibition Skp2 @ (100 μM); for inhibition at 10 µM: read-out: % Inhibition Skp2 @ 10 μM
Chain of Skp2 (Q13309 whole entry, species assumed): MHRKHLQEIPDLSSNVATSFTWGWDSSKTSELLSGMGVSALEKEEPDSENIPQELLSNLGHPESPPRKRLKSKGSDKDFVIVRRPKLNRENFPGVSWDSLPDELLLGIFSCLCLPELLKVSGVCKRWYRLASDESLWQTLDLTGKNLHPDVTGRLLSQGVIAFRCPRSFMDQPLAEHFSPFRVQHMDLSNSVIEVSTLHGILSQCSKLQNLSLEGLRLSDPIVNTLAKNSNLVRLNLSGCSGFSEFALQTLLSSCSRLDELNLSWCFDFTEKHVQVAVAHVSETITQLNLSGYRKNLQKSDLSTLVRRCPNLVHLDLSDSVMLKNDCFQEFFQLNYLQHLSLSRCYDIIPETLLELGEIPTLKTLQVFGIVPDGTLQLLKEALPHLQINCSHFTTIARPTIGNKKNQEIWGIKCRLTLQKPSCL
Chain of Skp2 (P63208 whole entry partner, species assumed): as the sequence (P63208 whole entry partner, one chain of several) above
Chain of Skp2 (Q13616 whole entry partner, species assumed): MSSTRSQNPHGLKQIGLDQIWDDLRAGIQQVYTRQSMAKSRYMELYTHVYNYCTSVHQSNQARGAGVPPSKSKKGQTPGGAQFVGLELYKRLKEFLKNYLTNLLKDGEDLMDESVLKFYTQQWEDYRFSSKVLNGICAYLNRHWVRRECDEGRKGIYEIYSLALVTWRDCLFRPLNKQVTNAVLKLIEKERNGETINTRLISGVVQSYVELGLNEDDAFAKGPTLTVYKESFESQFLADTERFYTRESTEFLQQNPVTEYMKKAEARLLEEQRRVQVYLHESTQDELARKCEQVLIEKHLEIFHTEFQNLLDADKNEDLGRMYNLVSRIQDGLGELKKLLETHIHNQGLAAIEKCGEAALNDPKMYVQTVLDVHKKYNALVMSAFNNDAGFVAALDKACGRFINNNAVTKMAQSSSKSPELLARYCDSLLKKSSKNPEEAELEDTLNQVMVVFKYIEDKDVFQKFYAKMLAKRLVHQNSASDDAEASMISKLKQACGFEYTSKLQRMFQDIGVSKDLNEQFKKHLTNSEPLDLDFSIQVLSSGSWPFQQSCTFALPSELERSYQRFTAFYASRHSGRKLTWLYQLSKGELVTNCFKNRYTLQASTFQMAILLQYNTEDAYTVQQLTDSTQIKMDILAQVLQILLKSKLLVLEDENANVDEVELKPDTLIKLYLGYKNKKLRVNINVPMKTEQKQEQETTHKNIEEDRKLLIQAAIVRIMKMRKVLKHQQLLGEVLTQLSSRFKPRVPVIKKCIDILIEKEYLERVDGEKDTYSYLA
Chain of Skp2 (P62877 whole entry partner, species assumed): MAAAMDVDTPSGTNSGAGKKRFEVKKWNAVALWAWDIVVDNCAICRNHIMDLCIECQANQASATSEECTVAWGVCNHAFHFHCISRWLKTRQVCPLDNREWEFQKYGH
In short: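 Skp2 ubiquitination was measured in master mixes of 50 mM Herpes buffer, pH 7.5, with 75 mM NaCl and 1 mM DTT, lacking Mg or ATP. Test compounds were preincubated for 30 minutes at room temperature, Mg/ATP was added for a further 60 minutes, and reactions were boiled in SDS loading buffer, resolved on 10% SDS-PAGE, blotted to nitrocellulose and probed with HRP-Streptavidin.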

βTrCP [2] = target: βTrCP (Homo sapiens, UniProt Q9Y297); assay: Fluorescence polarisation (FP) binding assay with fluorescein-tagged IκB peptide
Target sequence in this assay (P63208 whole entry partner, one chain of several): as the sequence (P63208 whole entry partner, one chain of several) above

FBW7/Skp1 = FBW7/Skp1 (Homo sapiens, UniProt Q969H0); assay: Selectivity assay vs other E3s: Fbw7; format: biochemical; conditions: for inhibition at 100 µM: value in brackets, read-out: % Inhibition Fbw7 @ (100 μM); for inhibition at 10 µM: read-out: % Inhibition Fbw7 @ 10 μM
Chain of FBW7/Skp1 (Q969H0 whole entry, species assumed): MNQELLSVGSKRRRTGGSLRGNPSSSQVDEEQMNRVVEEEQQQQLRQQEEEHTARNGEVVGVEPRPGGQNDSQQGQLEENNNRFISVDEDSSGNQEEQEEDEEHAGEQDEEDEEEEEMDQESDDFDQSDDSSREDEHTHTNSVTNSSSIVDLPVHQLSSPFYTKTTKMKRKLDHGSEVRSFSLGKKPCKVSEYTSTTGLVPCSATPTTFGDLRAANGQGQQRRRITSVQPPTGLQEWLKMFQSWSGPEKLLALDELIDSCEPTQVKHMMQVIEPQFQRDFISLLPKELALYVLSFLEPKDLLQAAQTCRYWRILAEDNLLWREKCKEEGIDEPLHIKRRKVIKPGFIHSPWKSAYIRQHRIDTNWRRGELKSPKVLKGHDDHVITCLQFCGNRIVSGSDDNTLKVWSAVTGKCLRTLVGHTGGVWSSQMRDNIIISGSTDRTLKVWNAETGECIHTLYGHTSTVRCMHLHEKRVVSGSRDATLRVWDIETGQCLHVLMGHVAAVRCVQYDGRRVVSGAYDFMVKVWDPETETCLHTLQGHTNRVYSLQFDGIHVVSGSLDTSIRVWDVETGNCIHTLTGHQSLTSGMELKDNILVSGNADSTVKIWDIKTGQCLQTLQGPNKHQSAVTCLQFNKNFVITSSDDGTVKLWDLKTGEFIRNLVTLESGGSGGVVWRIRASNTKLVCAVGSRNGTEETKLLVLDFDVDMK
Chain of FBW7/Skp1 (P63208 whole entry partner, species assumed): as the sequence (P63208 whole entry partner, one chain of several) above
Chain of FBW7/Skp1 (Q13616 whole entry partner, species assumed): as the sequence (Q13616 whole entry partner, species assumed) above
Chain of FBW7/Skp1 (P62877 whole entry partner, species assumed): as the sequence (P62877 whole entry partner, species assumed) above
In short: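 FBW7/Skp1 E3 ubiquitination of cyclin E substrate in 50 mM HEPES pH 7.5, 75 mM NaCl, 1 mM DTT; preincubated 30 min at room temperature before Mg/ATP, then 60 min more. Products resolved by 10% SDS-PAGE and immunoblotted with anti-cyclin E.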

[3] = Table 11, with spread, read-out: FP IC50/μM

Row | SMILES | cell based activity (PDCD4 in MCF7 cells) | Kd (βTrCP/Skp1) [µM] | Biotin Pulldown Assay 10 μM (βTrCP [1]) | Biotin Pulldown Assay 100 μM (βTrCP [1]) | Ub Assay 10 μM (β-TrCP1/Skp1) | Ub Assay 100 μM (β-TrCP1/Skp1) | inhibition at 100 µM (Skp2) [%] | inhibition at 10 µM (Skp2) [%] | IC50 (βTrCP [2]; [3]) [µM] | IC50 (βTrCP [2]; Tables 1, 3, 7, 8, 10 nM fluorescein-tagged IκB peptide, read-out: FP Assay IC50/μM) [µM] | inhibition at 100 µM (FBW7/Skp1) [%] | inhibition at 10 µM (FBW7/Skp1) [%]
1 | NC(=O)[C@H](CCCCNC(=O)c1ccc2ccccc2c1)NC(=O)CCCCCNC(=O)[C@H](CCC(=O)O)NC(=O)[C@H](Cc1c[nH]c2ccccc12)NC(=O)[C@H](Cc1cccc(F)c1)NC(=O)CNC(=O)[C@H](CCC(=O)O)NC(=O)[C@@H](CC(=O)O)NS(=O)(=O)c1ccc(Br)cc1 [UBP090, 4-(Br)PhSO2-dEGF(3F)WE-Ahx-K(NHCO(2-Naphth))-NH2] (Brosyl-[dD]EG[Phe(3-F)]WE[Ahx]K(2Naphthoyl)-NH2) | display cell based activity | – | – | – | – | – | – | – | – | – | – | –
2 | NC(=O)[C@H](CCC(=O)O)NC(=O)[C@H](Cc1c[nH]cn1)NC(=O)[C@H](Cc1cccc(F)c1)NC(=O)CNC(=O)[C@H](CCC(=O)O)NC(=O)CCC(=O)O [UBP015, Suc-EGF(3F)HE-NH2] (Suc-EG[Phe(3-F)]HE-NH2) | – | 0.4 ± 0.021 | reduces/ | inhibits | reduces/ | inhibits | 18 | 3 | 0.521 ± 0.059 | 0.521 | 83 | 12
3 | COc1ccc(S(=O)(=O)N[C@H](CC(=O)O)C(=O)N[C@@H](CCC(=O)O)C(=O)NCC(=O)N[C@@H](Cc2cccc(F)c2)C(=O)N[C@@H](Cc2c[nH]c3ccccc23)C(=O)N[C@@H](CCC(=O)O)C(N)=O)cc1 [UBP022, 4-(MeO)-PhSO2-dEGF(3F)WE-NH2] ({Benzenesulfonyl(4-OMe)}-[dD]EG[Phe(3-F)]WE-NH2) | display cell based activity | – | – | – | – | – | – | – | – | – | – | –
4 | NC(=O)[C@H](CCC(=O)O)NC(=O)[C@H](Cc1ccc([N+](=O)[O-])cc1)NC(=O)[C@H](Cc1cccc(F)c1)NC(=O)CNC(=O)[C@H](CCC(=O)O)NC(=O)/C=C\C(=O)O [UBP008, Mal-EGF(3F)F(4NO2)E-NH2] (Maleoyl-EG[Phe(3-F)][Phe(4-NO2)]E-NH2) | – | 1.46 ± 0.035 | no effect/ | inhibits | no effect/ | inhibits | 14 | 0 | 2.17 ± 0.425 | – | 18 | 0
